# Tests used:
# Type in all cases: in vivo
# [1] = tested on: Echinochloa oryzacola Vasing.; experiment: Test Example 2: herbicidal activity, application during weed generation in submerged conditions; conditions: Eighteenth Table; application herbicide amount 320 g/ha
# Outline: (§1)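 Scored three weeks post-application on a 0–5 scale (5: ≥90% herbicidal ratio, almost withered; 0: ≤5%). Plants raised from mixed-sown seed in submerged alluvial soil (4 cm water), 25–30 °C greenhouse; water-diluted emulsion applied onto water surface at one- to two-leaf stage, dose in g/ha.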
# Monochoria vaginalis = experiment: as above; conditions: Eighteenth Table; application herbicide amount 320 g/ha
# Outline: as §1
# Scirpus juncoides = experiment: as above; conditions: Eighteenth Table; application herbicide amount 320 g/ha
# Outline: as §1
# Abutilon theophrasti = experiment: Test Example 4: herbicidal effect by application to foliage (diluvial soil, plastic box); conditions: Application herbicide amount 320 g/ha; foliage application
# Outline: (§2)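 Seeds sown in sterilized diluvial soil, covered ~1.5 cm, grown 14 days in greenhouse at 25° C. to 30° C. Emulsion formulation diluted in water to set rate (g/ha) and sprayed onto stems and leaves. Effect scored visually 3 weeks later on 0–5 scale (5 = ≥90% herbicidal ratio, 0 = ≤5%).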
# Alopecurus myosuroides = experiment: as above; conditions: Application herbicide amount 320 g/ha; foliage application
# Outline: as §2
# Amaranthus retroflexus = experiment: as above; conditions: Application herbicide amount 320 g/ha; foliage application
# Outline: as §2
# Apera spica-venti. = experiment: as above; conditions: Application herbicide amount 320 g/ha; foliage application
# Outline: as §2
# Avena fatua = experiment: as above; conditions: Application herbicide amount 320 g/ha; foliage application
# Outline: as §2
# Chenopodium album = experiment: as above; conditions: Application herbicide amount 320 g/ha; foliage application
# Outline: as §2
# Digitaria ciliaris = experiment: as above; conditions: Application herbicide amount 320 g/ha; foliage application
# Outline: as §2
# [2] = tested on: Echinochloa crus-galli var. crus-galli; experiment: as above; conditions: Application herbicide amount 320 g/ha; foliage application
# Outline: as §2
# Galium spurium = experiment: as above; conditions: Application herbicide amount 320 g/ha; foliage application
# Outline: as §2
# Lolium multiflorum Lam. = experiment: as above; conditions: Application herbicide amount 320 g/ha; foliage application
# Outline: as §2
# Stellaria media = experiment: as above; conditions: Application herbicide amount 320 g/ha; foliage application
# Outline: as §2
# Veronica persica = experiment: as above; conditions: Application herbicide amount 320 g/ha; foliage application
# Outline: as §2
# [3] = tested on: Beta vulgaris ssp. vulgaris; experiment: Test Example 4: effect on crop by application to foliage (diluvial soil, plastic box); conditions: Application herbicide amount 320 g/ha; foliage application
# Outline: as §2
# Brassica campestris L. = experiment: as above; conditions: Application herbicide amount 320 g/ha; foliage application
# Outline: as §2
# Glycine max = experiment: as above; conditions: Application herbicide amount 320 g/ha; foliage application
# Outline: as §2
# Triticum aestivum = experiment: as above; conditions: Application herbicide amount 320 g/ha; foliage application
# Outline: as §2
# Zea mays = experiment: as above; conditions: Application herbicide amount 320 g/ha; foliage application
# Outline: as §2
Compound,A (Echinochloa oryzicola Vasing.) herbicidal ratio grade [1],C (Monochoria vaginalis) herbicidal ratio grade (Monochoria vaginalis),B (Scirpus juncoides) herbicidal ratio grade (Scirpus juncoides),M (Abutilon theophrasti) herbicidal effect grade (Abutilon theophrasti),J (Alopecurus myosuroides) herbicidal effect grade (Alopecurus myosuroides),N (Amaranthus retroflexus) herbicidal effect grade (Amaranthus retroflexus),L (Apera spica-venti.) herbicidal effect grade (Apera spica-venti.),I (Avena fatua) herbicidal effect grade (Avena fatua),O (Chenopodium album) herbicidal effect grade (Chenopodium album),F (Digitaria ciliaris) herbicidal effect grade (Digitaria ciliaris),H (Echinochloa crus-galli var. crus-galli) herbicidal effect grade [2],Q (Galium spurium) herbicidal effect grade (Galium spurium),K (Lolium multiflorum Lam.) herbicidal effect grade (Lolium multiflorum Lam.),P (Stellaria media) herbicidal effect grade (Stellaria media),R (Veronica persica) herbicidal effect grade (Veronica persica),f (Beta vulgaris ssp. vulgaris) effect on crop grade [3],g (Brassica campestris L.) effect on crop grade (Brassica campestris L.),d (Glycine max) effect on crop grade (Glycine max),e (Triticum aestivum) effect on crop grade (Triticum aestivum),c (Zea mays) effect on crop grade (Zea mays)
CCN(C)c1nnc2c(C(=O)Nc3nnco3)ccc(C(F)(F)F)n12 [1-137],3 (Herbicidal ratio of 40% or more and less than 70%),3 (Herbicidal ratio of 40% or more and less than 70%),3 (Herbicidal ratio of 40% or more and less than 70%),3 (Herbicidal ratio of 40% or more and less than 70%),2 (Herbicidal ratio of 20% or more and less than 40%),4 (Herbicidal ratio of 70% or more and less than 90%),4 (Herbicidal ratio of 70% or more and less than 90%),3 (Herbicidal ratio of 40% or more and less than 70%),5 (Herbicidal ratio of 90% or more (almost completely withered)),4 (Herbicidal ratio of 70% or more and less than 90%),5 (Herbicidal ratio of 90% or more (almost completely withered)),3 (Herbicidal ratio of 40% or more and less than 70%),2 (Herbicidal ratio of 20% or more and less than 40%),5 (Herbicidal ratio of 90% or more (almost completely withered)),5 (Herbicidal ratio of 90% or more (almost completely withered)),5 (Herbicidal ratio of 90% or more (almost completely withered)),5 (Herbicidal ratio of 90% or more (almost completely withered)),4 (Herbicidal ratio of 70% or more and less than 90%),2 (Herbicidal ratio of 20% or more and less than 40%),0 (Herbicidal ratio of 5% or less (almost no effect))
CC(C)N(C)c1nnc2c(C(=O)Nc3nnco3)ccc(C(F)(F)F)n12 [1-122],4 (Herbicidal ratio of 70% or more and less than 90%),3 (Herbicidal ratio of 40% or more and less than 70%),3 (Herbicidal ratio of 40% or more and less than 70%),5 (Herbicidal ratio of 90% or more (almost completely withered)),3 (Herbicidal ratio of 40% or more and less than 70%),5 (Herbicidal ratio of 90% or more (almost completely withered)),4 (Herbicidal ratio of 70% or more and less than 90%),2 (Herbicidal ratio of 20% or more and less than 40%),5 (Herbicidal ratio of 90% or more (almost completely withered)),5 (Herbicidal ratio of 90% or more (almost completely withered)),5 (Herbicidal ratio of 90% or more (almost completely withered)),4 (Herbicidal ratio of 70% or more and less than 90%),3 (Herbicidal ratio of 40% or more and less than 70%),5 (Herbicidal ratio of 90% or more (almost completely withered)),5 (Herbicidal ratio of 90% or more (almost completely withered)),5 (Herbicidal ratio of 90% or more (almost completely withered)),5 (Herbicidal ratio of 90% or more (almost completely withered)),5 (Herbicidal ratio of 90% or more (almost completely withered)),2 (Herbicidal ratio of 20% or more and less than 40%),2 (Herbicidal ratio of 20% or more and less than 40%)
CCN(C)c1nnc2c(C(=O)Nc3nnc(C)o3)ccc(C(F)(F)F)n12 [1-134],1 (Herbicidal ratio of 5% or more and less than 20%),3 (Herbicidal ratio of 40% or more and less than 70%),3 (Herbicidal ratio of 40% or more and less than 70%),4 (Herbicidal ratio of 70% or more and less than 90%),1 (Herbicidal ratio of 5% or more and less than 20%),3 (Herbicidal ratio of 40% or more and less than 70%),1 (Herbicidal ratio of 5% or more and less than 20%),0 (Herbicidal ratio of 5% or less (almost no effect)),5 (Herbicidal ratio of 90% or more (almost completely withered)),4 (Herbicidal ratio of 70% or more and less than 90%),5 (Herbicidal ratio of 90% or more (almost completely withered)),3 (Herbicidal ratio of 40% or more and less than 70%),1 (Herbicidal ratio of 5% or more and less than 20%),4 (Herbicidal ratio of 70% or more and less than 90%),4 (Herbicidal ratio of 70% or more and less than 90%),5 (Herbicidal ratio of 90% or more (almost completely withered)),4 (Herbicidal ratio of 70% or more and less than 90%),3 (Herbicidal ratio of 40% or more and less than 70%),1 (Herbicidal ratio of 5% or more and less than 20%),0 (Herbicidal ratio of 5% or less (almost no effect))
CN(c1nnc2c(C(=O)Nc3nnco3)ccc(C(F)(F)F)n12)C1CCCCC1 [1-123],3 (Herbicidal ratio of 40% or more and less than 70%),3 (Herbicidal ratio of 40% or more and less than 70%),2 (Herbicidal ratio of 20% or more and less than 40%),4 (Herbicidal ratio of 70% or more and less than 90%),0 (Herbicidal ratio of 5% or less (almost no effect)),4 (Herbicidal ratio of 70% or more and less than 90%),0 (Herbicidal ratio of 5% or less (almost no effect)),1 (Herbicidal ratio of 5% or more and less than 20%),5 (Herbicidal ratio of 90% or more (almost completely withered)),4 (Herbicidal ratio of 70% or more and less than 90%),4 (Herbicidal ratio of 70% or more and less than 90%),2 (Herbicidal ratio of 20% or more and less than 40%),0 (Herbicidal ratio of 5% or less (almost no effect)),4 (Herbicidal ratio of 70% or more and less than 90%),3 (Herbicidal ratio of 40% or more and less than 70%),4 (Herbicidal ratio of 70% or more and less than 90%),3 (Herbicidal ratio of 40% or more and less than 70%),3 (Herbicidal ratio of 40% or more and less than 70%),0 (Herbicidal ratio of 5% or less (almost no effect)),0 (Herbicidal ratio of 5% or less (almost no effect))

# Reference: patent publication US9708314B2, “Heterocyclic amide compound” (NISSAN CHEMICAL INDUSTRIES, LTD., priority 2013, dated 2017)
